{"source": "ChEMBL document CHEMBL1201862", "about": "“PubChem BioAssay data set” (2004)", "key": {"[1]": {"assay": "luciferase reporter signal suppression in cells – H4 neuroglioma cells, luminescence, dose response (AID 1990)", "format": "functional, cell-based"}, "[2]": {"assay": "Luminescence Cell-Based Dose Response HTS to Identify Inhibitors of 5'UTR Stem-Loop Driven Prion Protein mRNA Translation in H4 Neuroglioblastoma Cells. [Related pubchem assays: 1827 (Project Summary), 1813 (Primary HTS)]", "format": "functional"}, "Galanin receptor type 2": {"molecular_target": "Galanin receptor type 2 (Homo sapiens, UniProt O43603)", "sequence (O43603 whole entry)": "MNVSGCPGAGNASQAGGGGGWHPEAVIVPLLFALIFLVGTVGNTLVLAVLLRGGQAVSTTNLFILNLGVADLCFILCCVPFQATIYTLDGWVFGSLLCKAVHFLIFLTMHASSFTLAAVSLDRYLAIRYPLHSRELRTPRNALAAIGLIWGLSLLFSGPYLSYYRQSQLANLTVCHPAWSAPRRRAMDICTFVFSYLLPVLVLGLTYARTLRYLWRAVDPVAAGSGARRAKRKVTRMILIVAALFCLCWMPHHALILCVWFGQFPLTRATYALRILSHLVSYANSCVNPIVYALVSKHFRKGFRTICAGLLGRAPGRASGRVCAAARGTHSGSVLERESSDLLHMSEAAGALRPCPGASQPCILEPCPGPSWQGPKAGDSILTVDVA", "assay": "Dose Response cell-based high-throughput screening assay to identify agonists of galanin receptor 2 (GALR2). [Related pubchem assays: 864 ]", "format": "functional"}, "[3]": {"assay": "alpha-synuclein stem-loop luciferase translation blockers – H4 neuroglioma cells, luminescence, confirmation (AID 1988)", "format": "functional, cell-based"}, "[4]": {"molecular_target": "Peroxisome proliferator-activated receptor gamma/Nuclear receptor corepressor 2 (Homo sapiens, UniProt P37231+Q9Y618)", "format": "functional"}, "[5]": {"molecular_target": "Photoreceptor-specific nuclear receptor (Homo sapiens, UniProt Q9Y5X4)", "sequence (Q9Y5X4 whole entry)": "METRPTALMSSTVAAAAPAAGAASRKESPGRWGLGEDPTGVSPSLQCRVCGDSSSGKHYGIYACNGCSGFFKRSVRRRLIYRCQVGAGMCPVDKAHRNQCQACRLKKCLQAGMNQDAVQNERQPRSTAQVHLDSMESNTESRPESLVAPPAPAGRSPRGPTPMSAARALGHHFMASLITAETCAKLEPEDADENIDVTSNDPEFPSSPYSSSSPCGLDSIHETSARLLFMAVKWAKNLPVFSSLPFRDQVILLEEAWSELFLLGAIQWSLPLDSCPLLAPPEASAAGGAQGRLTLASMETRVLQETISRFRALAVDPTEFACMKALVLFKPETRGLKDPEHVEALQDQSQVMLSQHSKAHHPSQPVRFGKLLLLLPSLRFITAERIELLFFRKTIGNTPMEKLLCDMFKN", "format": "functional"}, "[6]": {"assay": "Counterscreen for IDE inhibitors: Luminescence-based cell-based high throughput dose response assay to identify compounds that are cytotoxic to HEK cells. [Related pubchem assays: 434962 (Primary screen (IDE inhibitors in singlicate)), 449730 (Counterscreen (Cytotoxicity in triplicate)), 435028 (Confirmation (IDE inhibitors in triplicate)) …", "format": "functional", "conditions": "HEK293"}, "Insulin-degrading enzyme": {"molecular_target": "T1, Insulin-degrading enzyme (Homo sapiens, UniProt P14735)", "T1 sequence (P14735 whole entry)": "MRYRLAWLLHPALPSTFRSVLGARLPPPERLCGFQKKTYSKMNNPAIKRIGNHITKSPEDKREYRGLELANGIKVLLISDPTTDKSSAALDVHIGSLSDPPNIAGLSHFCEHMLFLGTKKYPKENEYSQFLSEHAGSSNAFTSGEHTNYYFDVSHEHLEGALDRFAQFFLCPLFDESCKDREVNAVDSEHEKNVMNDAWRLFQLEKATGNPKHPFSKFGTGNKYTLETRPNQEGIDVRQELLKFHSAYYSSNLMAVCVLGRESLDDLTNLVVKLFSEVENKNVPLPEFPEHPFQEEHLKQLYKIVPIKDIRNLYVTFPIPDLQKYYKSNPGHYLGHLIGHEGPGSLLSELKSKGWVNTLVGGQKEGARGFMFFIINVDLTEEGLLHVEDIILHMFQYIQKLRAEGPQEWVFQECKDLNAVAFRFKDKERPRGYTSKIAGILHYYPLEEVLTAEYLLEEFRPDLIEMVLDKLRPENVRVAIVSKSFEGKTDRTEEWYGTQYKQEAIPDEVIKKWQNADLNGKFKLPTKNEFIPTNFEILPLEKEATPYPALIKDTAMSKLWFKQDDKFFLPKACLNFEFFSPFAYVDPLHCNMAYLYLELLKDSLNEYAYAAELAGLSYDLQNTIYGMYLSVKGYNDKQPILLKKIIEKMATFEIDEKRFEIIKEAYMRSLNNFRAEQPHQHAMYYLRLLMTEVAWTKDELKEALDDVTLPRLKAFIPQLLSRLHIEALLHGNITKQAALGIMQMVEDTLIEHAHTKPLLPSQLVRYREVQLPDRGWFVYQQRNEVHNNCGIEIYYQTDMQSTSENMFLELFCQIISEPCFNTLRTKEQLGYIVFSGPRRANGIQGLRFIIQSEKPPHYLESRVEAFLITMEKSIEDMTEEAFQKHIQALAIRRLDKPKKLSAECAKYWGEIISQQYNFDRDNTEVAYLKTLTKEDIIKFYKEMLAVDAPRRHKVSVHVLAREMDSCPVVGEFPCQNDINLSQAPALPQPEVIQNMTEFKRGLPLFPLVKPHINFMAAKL", "assay": "Dose Response: Fluorescence polarization-based cell-based high throughput dose response assay for inhibitors of insulin-degrading enzyme (IDE). [Related pubchem assays: 434962 (Primary screen (IDE inhibitors in singlicate)), 449730 (Counterscreen (Cytotoxicity in triplicate)), 435028 (Confirmation (IDE inhibitors in triplicate)), 434984 (Summary …", "format": "functional"}, "Bcl-2-like protein 10": {"molecular_target": "T2, Bcl-2-like protein 10 (Homo sapiens, UniProt Q9HD36)", "T2 sequence (Q9HD36 whole entry)": "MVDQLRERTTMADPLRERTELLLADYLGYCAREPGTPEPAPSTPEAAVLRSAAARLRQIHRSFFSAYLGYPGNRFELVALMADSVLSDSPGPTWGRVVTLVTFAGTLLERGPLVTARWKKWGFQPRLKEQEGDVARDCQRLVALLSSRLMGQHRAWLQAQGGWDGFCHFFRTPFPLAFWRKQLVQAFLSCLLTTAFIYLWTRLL", "assay": "Bcl-B/TR3 peptide binding disruption – biochemical, fluorescence polarization, FITC-TR3 peptide, selectivity assay for Bfl-1 inhibitor project, primary screen (AID 748);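 note: fluorescence polarization from a fluorescein-labelled TR3 peptide binding purified Bcl-B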"}, "Large T antigen": {"molecular_target": "Large T antigen (Simian virus 40, UniProt P03070)", "sequence (P03070 whole entry)": "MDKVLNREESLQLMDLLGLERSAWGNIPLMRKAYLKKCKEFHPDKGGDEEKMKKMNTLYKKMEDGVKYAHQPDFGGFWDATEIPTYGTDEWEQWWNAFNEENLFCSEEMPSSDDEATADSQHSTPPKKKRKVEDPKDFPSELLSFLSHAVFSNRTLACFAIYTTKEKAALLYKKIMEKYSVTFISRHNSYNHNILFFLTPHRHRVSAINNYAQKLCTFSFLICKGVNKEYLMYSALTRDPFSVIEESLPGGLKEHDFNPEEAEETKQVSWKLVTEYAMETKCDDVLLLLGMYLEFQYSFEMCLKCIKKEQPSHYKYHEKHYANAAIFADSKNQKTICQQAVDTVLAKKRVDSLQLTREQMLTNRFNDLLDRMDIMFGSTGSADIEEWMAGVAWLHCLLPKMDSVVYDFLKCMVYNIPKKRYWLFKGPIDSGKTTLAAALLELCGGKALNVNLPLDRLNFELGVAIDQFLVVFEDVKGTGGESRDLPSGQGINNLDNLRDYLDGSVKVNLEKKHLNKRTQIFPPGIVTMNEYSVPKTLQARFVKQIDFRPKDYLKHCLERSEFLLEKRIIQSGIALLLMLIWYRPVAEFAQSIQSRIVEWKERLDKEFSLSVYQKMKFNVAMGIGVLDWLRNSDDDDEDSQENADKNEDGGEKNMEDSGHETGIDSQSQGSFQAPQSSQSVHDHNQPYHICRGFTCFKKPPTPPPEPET", "format": "functional, Betapolyomavirus macacae"}, "Leucine aminopeptidase": {"molecular_target": "T3, Leucine aminopeptidase (Plasmodium falciparum 3D7, UniProt Q8IL11)", "T3 sequence (Q8IL11 whole entry)": "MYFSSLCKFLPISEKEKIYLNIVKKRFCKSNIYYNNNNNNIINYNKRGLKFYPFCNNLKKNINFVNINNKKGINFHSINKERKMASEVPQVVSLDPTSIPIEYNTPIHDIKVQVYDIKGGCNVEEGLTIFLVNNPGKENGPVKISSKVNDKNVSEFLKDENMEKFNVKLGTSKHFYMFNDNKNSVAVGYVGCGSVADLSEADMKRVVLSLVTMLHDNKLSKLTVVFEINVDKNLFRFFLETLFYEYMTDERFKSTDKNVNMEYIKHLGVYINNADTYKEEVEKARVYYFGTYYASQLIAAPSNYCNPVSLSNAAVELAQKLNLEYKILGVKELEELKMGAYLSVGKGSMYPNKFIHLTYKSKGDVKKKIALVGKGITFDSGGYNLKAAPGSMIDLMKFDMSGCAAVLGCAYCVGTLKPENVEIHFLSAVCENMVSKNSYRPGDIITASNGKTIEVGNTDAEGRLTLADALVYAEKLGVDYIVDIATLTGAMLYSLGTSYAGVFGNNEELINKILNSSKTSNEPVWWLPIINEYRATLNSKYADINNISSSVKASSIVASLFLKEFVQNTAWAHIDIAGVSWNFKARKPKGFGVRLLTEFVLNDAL", "assay": "P. falciparum M17LAP inhibitors, primary screen, biochemical, fluorogenic H-Leu-NHMec substrate, 1536-well (AID 1619)", "format": "functional"}, "Aspartyl aminopeptidase": {"molecular_target": "Aspartyl aminopeptidase (Plasmodium falciparum 3D7, UniProt Q8I2J3)", "sequence (Q8I2J3 whole entry)": "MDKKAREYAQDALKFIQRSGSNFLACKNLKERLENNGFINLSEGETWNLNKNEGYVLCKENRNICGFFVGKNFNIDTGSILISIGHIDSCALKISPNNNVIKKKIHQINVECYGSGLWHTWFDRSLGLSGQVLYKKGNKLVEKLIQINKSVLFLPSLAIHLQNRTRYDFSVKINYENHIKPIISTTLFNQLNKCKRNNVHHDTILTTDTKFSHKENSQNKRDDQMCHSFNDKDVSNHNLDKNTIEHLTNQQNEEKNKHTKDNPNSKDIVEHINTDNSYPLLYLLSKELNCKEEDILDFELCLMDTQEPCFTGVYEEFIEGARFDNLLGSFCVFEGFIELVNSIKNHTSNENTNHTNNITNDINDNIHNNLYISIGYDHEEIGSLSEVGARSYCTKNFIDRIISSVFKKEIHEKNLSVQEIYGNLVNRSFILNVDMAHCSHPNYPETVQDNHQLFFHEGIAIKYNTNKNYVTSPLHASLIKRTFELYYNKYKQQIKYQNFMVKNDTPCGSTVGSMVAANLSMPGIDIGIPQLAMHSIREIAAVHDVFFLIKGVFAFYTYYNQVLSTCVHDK"}, "Estrogen receptor beta [7]": {"molecular_target": "T4, Estrogen receptor beta (Homo sapiens, UniProt Q92731)", "T4 sequence (Q92731 whole entry)": "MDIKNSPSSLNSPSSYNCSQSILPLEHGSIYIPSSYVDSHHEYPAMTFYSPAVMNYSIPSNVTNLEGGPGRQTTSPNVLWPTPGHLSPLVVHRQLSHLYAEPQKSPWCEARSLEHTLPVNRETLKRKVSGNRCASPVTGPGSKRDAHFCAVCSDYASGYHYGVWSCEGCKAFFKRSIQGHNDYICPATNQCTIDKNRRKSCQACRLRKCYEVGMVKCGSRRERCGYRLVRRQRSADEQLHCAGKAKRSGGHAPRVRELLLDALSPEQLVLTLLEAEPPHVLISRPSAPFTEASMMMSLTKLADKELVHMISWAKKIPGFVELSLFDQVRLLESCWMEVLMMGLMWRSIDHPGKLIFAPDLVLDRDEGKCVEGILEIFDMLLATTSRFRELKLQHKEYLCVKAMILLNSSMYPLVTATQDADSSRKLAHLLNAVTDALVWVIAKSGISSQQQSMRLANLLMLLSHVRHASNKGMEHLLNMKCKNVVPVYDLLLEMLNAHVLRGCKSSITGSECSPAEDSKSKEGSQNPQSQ", "assay": "blockers of SRC-3 recruitment to ERβ – biochemical, ELISA, streptavidin-HRP readout, orthogonal assay, confirmation (AID 1060)"}, "Procathepsin L": {"molecular_target": "Procathepsin L (Homo sapiens, UniProt P07711)", "sequence (P07711 whole entry)": "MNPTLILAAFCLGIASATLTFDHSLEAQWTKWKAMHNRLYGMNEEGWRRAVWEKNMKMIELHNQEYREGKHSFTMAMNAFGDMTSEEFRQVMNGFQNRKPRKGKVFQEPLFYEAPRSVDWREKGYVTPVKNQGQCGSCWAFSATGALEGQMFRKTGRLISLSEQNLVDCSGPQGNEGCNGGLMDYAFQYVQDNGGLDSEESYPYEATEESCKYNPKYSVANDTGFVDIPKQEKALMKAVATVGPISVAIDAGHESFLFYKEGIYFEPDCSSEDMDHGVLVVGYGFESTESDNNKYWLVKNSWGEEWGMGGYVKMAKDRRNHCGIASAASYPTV"}, "Estrogen receptor beta [8]": {"molecular_target": "T4, Estrogen receptor beta"}, "[9]": {"assay": "HEK-293T viability loss after treatment – luminescence, T-cell screen hits, cytotoxicity control for TCR NF-kB inhibitor project, dose response (AID 489026);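 note: cells exposed to compound about 14 hours before the viability readout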", "format": "functional, cell-based"}, "[10]": {"molecular_target": "Neuropeptide Y receptor type 1 (Homo sapiens, UniProt P25929)", "sequence (P25929 whole entry)": "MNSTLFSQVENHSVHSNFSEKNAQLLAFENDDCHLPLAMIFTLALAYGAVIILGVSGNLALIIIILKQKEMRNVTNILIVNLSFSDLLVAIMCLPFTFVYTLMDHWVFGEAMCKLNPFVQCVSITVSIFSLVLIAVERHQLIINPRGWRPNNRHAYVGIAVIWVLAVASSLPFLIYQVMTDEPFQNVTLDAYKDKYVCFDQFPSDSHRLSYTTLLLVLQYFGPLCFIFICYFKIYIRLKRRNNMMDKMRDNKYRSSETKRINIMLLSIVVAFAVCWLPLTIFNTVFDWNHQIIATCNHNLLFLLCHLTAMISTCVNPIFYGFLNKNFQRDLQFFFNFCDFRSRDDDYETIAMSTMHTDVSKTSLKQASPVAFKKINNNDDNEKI", "format": "functional"}, "[11]": {"molecular_target": "Neuropeptide Y receptor type 2 (Homo sapiens, UniProt P49146)", "sequence (P49146 whole entry)": "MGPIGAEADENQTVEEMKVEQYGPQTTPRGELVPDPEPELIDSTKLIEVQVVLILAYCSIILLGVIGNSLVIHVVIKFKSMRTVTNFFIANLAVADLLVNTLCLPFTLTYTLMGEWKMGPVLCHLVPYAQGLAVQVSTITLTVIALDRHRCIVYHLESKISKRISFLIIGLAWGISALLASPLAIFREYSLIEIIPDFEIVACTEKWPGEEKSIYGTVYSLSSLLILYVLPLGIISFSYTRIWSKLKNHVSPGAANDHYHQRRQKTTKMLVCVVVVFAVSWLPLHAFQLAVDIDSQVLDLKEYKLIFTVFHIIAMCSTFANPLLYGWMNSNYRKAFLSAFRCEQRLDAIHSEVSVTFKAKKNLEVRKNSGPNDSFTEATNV", "format": "functional, cell-based"}, "[12]": {"system": "Streptococcus sp. 'group A'", "assay": "Streptococcus pyogenes SK(-)GAS viability under kanamycin – luminescence, BacTiterGlo, confirmation, counter-screen for streptokinase expression inhibitor project, dose response (AID 1900)", "format": "functional, organism-based"}, "Streptokinase A": {"molecular_target": "T5, Streptokinase A (Streptococcus pyogenes serotype M1, UniProt P10520)", "T5 sequence (P10520 whole entry)": "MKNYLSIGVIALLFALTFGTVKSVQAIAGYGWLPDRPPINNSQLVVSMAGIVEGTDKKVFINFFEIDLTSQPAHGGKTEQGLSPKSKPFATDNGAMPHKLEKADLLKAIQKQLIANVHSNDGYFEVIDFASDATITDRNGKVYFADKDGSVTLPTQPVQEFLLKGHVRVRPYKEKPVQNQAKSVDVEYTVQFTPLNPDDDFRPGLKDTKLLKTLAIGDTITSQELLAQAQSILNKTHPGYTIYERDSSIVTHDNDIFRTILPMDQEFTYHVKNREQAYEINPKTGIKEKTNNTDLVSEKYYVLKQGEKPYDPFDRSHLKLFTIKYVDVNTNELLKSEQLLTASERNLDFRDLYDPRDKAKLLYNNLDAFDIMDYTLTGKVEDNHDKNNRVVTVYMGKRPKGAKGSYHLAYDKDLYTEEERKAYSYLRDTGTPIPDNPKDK", "assay": "viability-normalized secreted streptokinase activity reduction – plasminogen activation absorbance, OD405, dose response (AID 1914)", "format": "functional, Streptococcus pyogenes M1 GAS"}, "Streptococcus [13]": {"system": "Streptococcus", "assay": "Luminescence Microorganism-Based Dose Response Follow up to Identify Compounds Cytotoxic to Streptococcus. [Related pubchem assays: 1677 (Project Summary), 1915, 1914, 1902 (Retest at Dose), 1900 (Counter Screen), 1662 (Primary HTS)]", "format": "functional, organism-based"}, "Streptococcus [14]": {"system": "Streptococcus", "assay": "GAS UMAA2166 growth inhibition – luminescence, BacTiterGlo, counter-screen for streptokinase expression inhibitor project, dose response (AID 1915);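 note: potency for reduction of bacterial viability or growth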", "format": "functional, organism-based"}, "[15]": {"molecular_target": "Sphingosine 1-phosphate receptor 2 (Homo sapiens, UniProt O95136)", "sequence (O95136 whole entry)": "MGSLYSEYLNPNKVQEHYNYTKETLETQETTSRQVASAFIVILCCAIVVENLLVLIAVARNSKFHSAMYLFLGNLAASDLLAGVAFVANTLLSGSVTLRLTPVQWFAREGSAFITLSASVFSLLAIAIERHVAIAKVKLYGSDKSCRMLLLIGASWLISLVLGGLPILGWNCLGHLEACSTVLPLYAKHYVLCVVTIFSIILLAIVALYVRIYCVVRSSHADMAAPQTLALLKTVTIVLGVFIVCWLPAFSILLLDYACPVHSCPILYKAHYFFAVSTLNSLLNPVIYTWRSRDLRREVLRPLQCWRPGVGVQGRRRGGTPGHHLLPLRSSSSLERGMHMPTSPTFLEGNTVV", "assay": "Dose Response Cell Based Assay for Agonists of the S1P2 Receptor of Purchased Analogues. [Related pubchem assays: 729, 843, 854, 736 ]", "format": "functional"}}, "note": "The source made the active and inactive calls."}
{"compound": "CCOc1ccc(Br)cc1C(=O)Nc1ccc(C(=O)NCC(C)C)cc1", "values": [{"measurement": "EC50", "setting": "[1]", "result": "21.6 µM (active)"}, {"measurement": "EC50", "setting": "[2]", "result": "18.1 µM (active)"}, {"measurement": "EC50", "setting": "Galanin receptor type 2", "result": "> 55.7 µM (not active)"}, {"measurement": "EC50", "setting": "[3]", "result": "> 120 µM (not active)"}, {"measurement": "IC50", "setting": "[4]", "result": "> 39.8 µM (not active)"}, {"measurement": "IC50", "setting": "[5]", "result": "> 39.8 µM (not active)"}]}
{"compound": "CCOc1ccc(N2C(=O)S/C(=C\\c3ccc(O)c(OC)c3)C2=O)cc1", "values": [{"measurement": "IC50", "setting": "[6]", "result": "> 55.7 µM (not active)"}, {"measurement": "IC50", "setting": "Insulin-degrading enzyme", "result": "29.8 µM (not active)"}]}
{"compound": "O=C(CSc1nc(O)c2ccccc2n1)c1ccc(O)c(O)c1", "values": [{"measurement": "IC50", "setting": "Bcl-2-like protein 10", "result": "23.4 µM (active)"}, {"measurement": "IC50", "setting": "Large T antigen", "result": "10.7 µM (active)"}, {"measurement": "IC50", "setting": "Leucine aminopeptidase", "result": "13 µM (active)"}, {"measurement": "IC50", "setting": "Aspartyl aminopeptidase", "result": "1.46 µM (active)"}, {"measurement": "IC50", "setting": "Estrogen receptor beta [7]", "result": "0.337 µM (not active)"}, {"measurement": "IC50", "setting": "Procathepsin L", "result": "> 59.6 µM (not active)"}, {"measurement": "IC50", "setting": "Estrogen receptor beta [8]", "result": "4.62 µM (active)"}]}
{"compound": "COC(=O)c1ccccc1NC(=O)Cn1c(-c2nonc2N)nc2ccccc21", "values": [{"measurement": "IC50", "setting": "[9]", "result": "> 80 µM (inactive)"}, {"measurement": "IC50", "setting": "[10]", "result": "4.83 µM (active)"}, {"measurement": "IC50", "setting": "[11]", "result": "15 µM (not active)"}]}
{"compound": "Cn1c(=O)c2c(nc(SCc3ccccc3)n2Cc2ccc(Cl)cc2)n(C)c1=O", "values": [{"measurement": "EC50", "setting": "[12]", "result": "7.96 µM (active)"}, {"measurement": "EC50", "setting": "Streptokinase A", "result": "10.7 µM (active)"}, {"measurement": "EC50", "setting": "Streptococcus [13]", "result": "> 500 µM (not active)"}, {"measurement": "EC50", "setting": "Streptococcus [14]", "result": "> 150 µM (not active)"}]}
{"compound": "Cc1cc(C(=O)CN(C)CC(=O)N2CCCC2)c(C)n1Cc1ccccc1", "values": [{"measurement": "EC50", "setting": "[15]", "result": "> 30 µM (not active)"}]}
